Here are results for one compound from patent US10624948B2, “Use of cell-permeable peptide inhibitors of the JNK signal transduction pathway for the treatment of various diseases” (Xigen Inflammation Ltd., priority 2013, dated 2020).

Structures are written as SMILES. Where two headings read alike, the source gives them in different places.

For series [1], the system named is Sprague-Dawley albino rats, light-induced photoreceptor cell death. The series is classed as in vivo. The method, then:
The aim of this study was to investigate the dose effect of XG-102 on light-induced photoreceptor cell death.
Test item (XG-102: 30 mg/ml, 3 mg/ml, and 0.3 mg/ml) and vehicle (0.9% NaCl) were administered by intravitreal injection in right eyes the day before induction. The reference (Phenyl-N-test-Butylnitrone (PBN) (50 mg/kg)) and vehicle were intraperitoneally injected 30 min before induction then, 3 times during 12 hours of light exposition, then once after induction. Animals were placed in constant light (7000 lux) for 24 h. Electroretinograms (ERG) were recorded before light treatment and on days 9, 16 and 23 after induction. Eyes were then taken for histology and outer nuclear layer (ONL) thickness assessment. The table below summarizes the allocation of animals in treatment groups:
For the intravitreal injection animals were anesthetized by intramuscular injection of a mixture of xylazine/ketamine. Test item (5 μl) and vehicle (5 μl) were injected in the right eye. The injection was performed under an operating microscope in the supratemporal area at pars plana using a 33G-needle mounted on a 50 μl Hamilton. The filled syringe was mounted into the UltraMicroPump III to achieve accurate injection in microliter range. Reference and vehicle were injected intraperitoneally at a dose volume of 2.5 ml/kg using a 30G-needle mounted on a 1 ml-syringe.
Light Exposure: The rats that had been dark-adapted overnight were exposed for 24 hours to a continuous white fluorescent light (7000 lx) in clear plastic cages. Each cage contained one rat. After exposure, the rats returned to rearing cyclic light conditions.
ERG was recorded before induction and 7, 14 and 21 days after cessation of exposure (Days 9, 16 and 23) on right eyes of dark-adapted and anesthezied animals. The latency times (for a- and b-wave) and the a-wave and b-wave amplitudes were measured for each ERG; the latency times were expressed as millisecond and the a-wave and b-wave as a percentage of the baseline value obtained before light exposure. 15 min before measurement 10 μl Mydriaticum® (0.5% tropicamide) were instilled for pupillary dilatation.
Measurement of the ONL Thickness: After ERG testing, animal was euthanized by an overdose of pentobarbital and the right eyes were enucleated, fixed and embedded in paraffin. Sections (5 μm thick) were performed along the vertical meridian and stained with Trichrome-Masson. The vertical meridian included the optic nerve.

In another series the test system is db/db mice. Particulars: mouse, in vivo, sc, 10 mg/kg.

Description for db/db mice: i) Animals • A total of twenty (20) male db/db mice (8 weeks old) were obtained from Charles River (Germany). Upon arrival, animals were group housed (n=6-7/group) and offered regular rodent chow (Altromin standard #1324 chow; C. Petersen, Ringsted, Denmark) and water ad libitum unless otherwise stated. The mice were housed under a 12:12 L/D cycle (lights on at 4:00 and lights off at 16:00) and in temperature and humidity controlled rooms.
ii) Groups and Randomization • On day −4, mice were randomized according to blood glucose level (fasted; blood glucose measured on Biosen S line analyzer (EKF diagnostic, Germany) to participate in one of the following drug treatment groups (n=6): • 1) Vehicle control, S.C. (physiological saline) • 2) XG-102 (SEQ ID NO: 11); 1 mg/kg; s.c. • 3) XG-102 (SEQ ID NO: 11); 10 mg/kg; s.c • All doses listed were calculated for the free-base. […] All compounds were administered sub-cutaneously (s.c.) in a volume of 3 ml/kg. The formulation instructions for vehicle control and XG-102 (SEQ ID NO: 11) were as follows: • First, XG-102 (SEQ ID NO: 11) was dissolved in the vehicle. […]
i) Blood Glucose • Blood glucose was measured from 7 hour fasted animals 6 hours post dosing by collection of 10 μl blood samples from the tail-vein in hematocrite tubes and subsequent analysis on a Biosen s-line analyzer (EKE-diagnostic; Germany).

Turning to `CC(C)C[C@@H](NC(=O)[C@@H](Cc1ccccc1)NC(=O)[C@H]1CCCN1C(=O)[C@@H](CCC(N)=O)NC(=O)[C@H](NC(=O)[C@H]1CCCN1C(=O)[C@@H](CCCNC(=N)N)NC(=O)[C@@H](CO)NC(=O)[C@@H](CCC(N)=O)NC(=O)[C@H](N)CC(=O)O)C(C)C)C(=O)N[C@H](CC(N)=O)C(=O)N[C@H](CC(C)C)C(=O)N[C@@H](C(=O)N[C@@H](C(=O)N1CCC[C@@H]1C(=O)N[C@H](CCCNC(=N)N)C(=O)N[C@H](CCCCN)C(=O)N1CCC[C@@H]1C(=O)N[C@H](CCCNC(=N)N)C(=O)N1CCC[C@@H]1C(=O)N1CCC[C@@H]1C(=O)N[C@H](CCCNC(=N)N)C(=O)N[C@H](CCCNC(=N)N)C(=O)N[C@H](CCCNC(=N)N)C(=O)N[C@H](CCC(N)=O)C(=O)N[C@H](CCCNC(=N)N)C(=O)N[C@H](CCCNC(=N)N)C(=O)N[C@H](CCCCN)C(=O)N[C@H](CCCCN)C(=O)N[C@H](CCCNC(=N)N)C(=O)NCC(=O)O)[C@H](C)O)[C@H](C)O` [XG-102], the “ERG A-wave amplitude, percent of the baseline, Mean ± SD” value in series [1] (XG-102 ivt 15 μg/eye, Day 23) came to 41.8 ± 23.6%; in series [1] (XG-102 ivt 150 μg/eye, Day 9) it was 23.6 ± 25.3%; in series [1] (XG-102 ivt 150 μg/eye, Day 16), 24.1 ± 28.1%; in series [1] (XG-102 ivt 150 μg/eye, Day 23), 23.7 ± 27.2%. Further, the “ERG B-wave amplitude, percent of the baseline, Mean ± SD” value was 56.5 ± 29.8% in series [1] (XG-102 ivt 15 μg/eye, Day 23); 31.9 ± 42.6% in series [1] (XG-102 ivt 150 μg/eye, Day 9); 38.9 ± 51.5% in series [1] (XG-102 ivt 150 μg/eye, Day 16); 37.1 ± 54.4% in series [1] (XG-102 ivt 150 μg/eye, Day 23). In addition, in the series with db/db mice, the “reaction at s.c. injection site” value was “nodular fibrosis was observed in the subcutaneous tissue”.
